Changes are numbered by the printed parent chain. Active and inactive are the calls of the source. The calls are words filed in the database; no cut-off is given here.
Tests used:
[1] = organism: Rattus norvegicus
[2] = target: T1, Muscarinic acetylcholine receptor M2 (Rattus norvegicus, UniProt P10980)
T1 sequence (P10980 whole entry): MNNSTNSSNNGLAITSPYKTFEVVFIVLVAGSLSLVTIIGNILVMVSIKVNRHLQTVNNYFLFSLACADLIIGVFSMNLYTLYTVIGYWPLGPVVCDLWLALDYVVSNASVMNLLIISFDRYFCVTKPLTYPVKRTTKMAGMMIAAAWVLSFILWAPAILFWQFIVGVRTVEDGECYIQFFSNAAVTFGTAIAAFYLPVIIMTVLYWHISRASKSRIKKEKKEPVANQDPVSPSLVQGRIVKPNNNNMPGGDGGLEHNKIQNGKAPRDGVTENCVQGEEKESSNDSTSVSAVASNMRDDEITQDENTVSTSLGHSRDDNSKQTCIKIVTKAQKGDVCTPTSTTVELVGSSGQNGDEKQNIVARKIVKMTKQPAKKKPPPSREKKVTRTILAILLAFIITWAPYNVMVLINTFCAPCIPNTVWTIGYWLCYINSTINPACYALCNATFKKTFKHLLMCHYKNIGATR
Description: Inhibition of [3H]N-methylscopolamine to rat muscarinic acetylcholine receptor M2 from heart tissue

[3] = target: T2, Muscarinic acetylcholine receptor M1 (Mus musculus, UniProt P12657); assay: biochemical
T2 sequence (P12657 whole entry): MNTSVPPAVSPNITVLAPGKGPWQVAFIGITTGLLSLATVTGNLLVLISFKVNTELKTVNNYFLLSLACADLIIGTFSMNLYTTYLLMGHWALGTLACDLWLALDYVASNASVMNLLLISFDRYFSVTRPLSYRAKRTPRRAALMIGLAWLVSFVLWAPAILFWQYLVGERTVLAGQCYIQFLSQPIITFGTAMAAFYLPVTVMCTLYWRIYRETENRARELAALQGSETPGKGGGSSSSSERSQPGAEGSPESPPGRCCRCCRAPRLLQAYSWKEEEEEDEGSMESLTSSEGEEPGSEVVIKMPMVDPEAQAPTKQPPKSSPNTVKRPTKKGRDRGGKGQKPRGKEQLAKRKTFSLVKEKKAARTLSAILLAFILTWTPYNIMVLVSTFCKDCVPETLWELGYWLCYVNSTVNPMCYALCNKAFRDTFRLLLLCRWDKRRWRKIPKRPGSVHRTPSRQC
Description: Inhibition of [3H]pirenzepine binding to mouse muscarinic acetylcholine receptor M1 from cerebral cortex

[4] = target: Cholinesterase (Homo sapiens, UniProt P06276)
Chain of Cholinesterase (P06276 whole entry): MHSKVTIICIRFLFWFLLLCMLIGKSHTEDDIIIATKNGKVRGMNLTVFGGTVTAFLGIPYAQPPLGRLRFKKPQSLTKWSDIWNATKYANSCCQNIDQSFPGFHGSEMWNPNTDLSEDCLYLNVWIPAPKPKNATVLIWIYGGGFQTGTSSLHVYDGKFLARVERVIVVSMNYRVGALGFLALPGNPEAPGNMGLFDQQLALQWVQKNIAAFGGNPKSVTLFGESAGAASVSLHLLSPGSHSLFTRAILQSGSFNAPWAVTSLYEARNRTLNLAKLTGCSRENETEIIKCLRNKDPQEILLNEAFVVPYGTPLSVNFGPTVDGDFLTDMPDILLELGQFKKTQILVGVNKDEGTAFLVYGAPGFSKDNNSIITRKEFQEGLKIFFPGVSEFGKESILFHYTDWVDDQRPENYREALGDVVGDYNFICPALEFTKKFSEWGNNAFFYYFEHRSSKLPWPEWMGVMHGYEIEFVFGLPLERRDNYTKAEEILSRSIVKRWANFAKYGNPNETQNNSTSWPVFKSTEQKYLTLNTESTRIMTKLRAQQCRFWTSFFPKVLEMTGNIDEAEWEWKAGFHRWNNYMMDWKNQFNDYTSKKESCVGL
Description: In vitro inhibition of human butryl cholinesterase.

[5] = organism: Rattus norvegicus; assay: Concentration required to potentiate the contraction of isolated rat ileum produced by 1 x 10 e -7 M Ach by 20 %; inactive; assay type: functional
[6] = target: Cholinesterases; ACHE & BCHE (Homo sapiens) (UniProt P06276+P22303); assay: Ratio of IC50(BChE-I) to IC50(AChE-I); assay type: protein assay
Chain of Cholinesterases; ACHE & BCHE (Homo sapiens) (P06276 whole entry, looked up): as the sequence (P06276 whole entry) above
Chain of Cholinesterases; ACHE & BCHE (Homo sapiens) (P22303 whole entry, looked up): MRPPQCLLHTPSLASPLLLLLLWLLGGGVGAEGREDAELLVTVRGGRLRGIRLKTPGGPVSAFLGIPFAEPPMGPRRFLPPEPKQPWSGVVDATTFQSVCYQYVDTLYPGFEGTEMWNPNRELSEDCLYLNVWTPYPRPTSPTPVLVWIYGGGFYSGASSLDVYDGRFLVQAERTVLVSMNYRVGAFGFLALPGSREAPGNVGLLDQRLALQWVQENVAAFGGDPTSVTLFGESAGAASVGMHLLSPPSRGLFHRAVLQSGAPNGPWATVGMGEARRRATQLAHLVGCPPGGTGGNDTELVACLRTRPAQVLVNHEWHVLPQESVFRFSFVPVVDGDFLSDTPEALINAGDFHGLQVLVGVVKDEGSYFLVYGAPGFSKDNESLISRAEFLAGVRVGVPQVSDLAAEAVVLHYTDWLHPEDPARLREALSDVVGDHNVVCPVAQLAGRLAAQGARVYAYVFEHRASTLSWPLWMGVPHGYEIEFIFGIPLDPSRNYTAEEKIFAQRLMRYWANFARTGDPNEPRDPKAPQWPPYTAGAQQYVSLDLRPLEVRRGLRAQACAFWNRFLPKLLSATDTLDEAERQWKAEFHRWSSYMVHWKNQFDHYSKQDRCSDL

[7] = organism: Rattus norvegicus; assay: Ratio of IC50 (muscarinic acetylcholine receptor M2) to IC50 (muscarinic acetylcholine receptor M1)
[8] = target: T3, Acetylcholinesterase (Homo sapiens, UniProt P22303)
T3 sequence (P22303 whole entry): as the sequence (P22303 whole entry, looked up) above
Description: In vitro inhibition of human acetylcholinesterase.

[9] = target: T1, Muscarinic acetylcholine receptor M2; assay: Binding affinity against rat muscarinic acetylcholine receptor M2 using heart tissue and [3H]N-methylscopolamine
[10] = target: T4, Muscarinic acetylcholine receptor M2 (Mus musculus, UniProt Q9ERZ4); assay: biochemical
T4 sequence (Q9ERZ4 whole entry): T1 sequence (P10980 whole entry) with V270G, R316K, K321R, A331T, V336A

[11] = target: T4, Muscarinic acetylcholine receptor M2; assay: biochemical; remark: listed apart in the source
[12] = target: T2, Muscarinic acetylcholine receptor M1; assay: biochemical; remark: listed apart in the source
Description: Binding affinity against mouse muscarinic acetylcholine receptor M1 using cerebral cortex and [3H]pirenzepine

[13] = system: Mus musculus; assay: Effect on brain acetylcholine concentration in mice after intraperitoneal administration of 60% lethal dose (102 mg/kg); assay type: functional
[14] = system: Mus musculus; assay: Effect on brain acetylcholine concentration in mice after intraperitoneal administration of 40% lethal dose (68 mg/kg); assay type: functional
[15] = system: Mus musculus; assay: Effect on brain acetylcholine concentration in mice after intraperitoneal administration of 80% lethal dose (140 mg/kg); assay type: functional
[16] = target: T3, Acetylcholinesterase; assay: In vitro acetyl cholinesterase (AChE-I) inhibitory activity to determine its ability to reverse the cholinergic deficit characteristic of AD
[17] = target: T2, Muscarinic acetylcholine receptor M1; assay: biochemical; remark: listed apart in the source
Description: Binding affinity against mouse Muscarinic acetylcholine receptor M1 using cerebral cortex and [3H]pirenzepine

[18] = target: T4, Muscarinic acetylcholine receptor M2; assay: Ability to displace [3H]methylscopolamine ([3H]NMS) from mouse cerebral cortex; assay type: tissue-based
[19] = target: T4, Muscarinic acetylcholine receptor M2; assay: Ability to displace [3H]oxotremorine ([3H]OXO-M) from mouse cerebral cortex; assay type: tissue-based
[20] = system: Mus musculus; assay: Effect on brain acetylcholine concentration in mice after intraperitoneal administration of 80% lethal dose (80 mg/kg)(***: p <= 0.001); assay type: functional
[21] = system: Mus musculus; assay: Effect on brain acetylcholine concentration in mice after intraperitoneal administration of 60% lethal dose (66 mg/kg); assay type: functional
[22] = system: Mus musculus; assay: Effect on brain acetylcholine concentration in mice after intraperitoneal administration of 40% lethal dose (68 mg/kg; assay type: functional
[23] = system: Mus musculus; assay: Effect on brain acetylcholine concentration in mice after intraperitoneal administration of 80% lethal dose (170 mg/kg); assay type: functional

| SMILES | Ileal activity [1] | IC50 [2] | IC50 [3] | IC50 [4] | Ratio [6] | Ratio [7] | IC50 [8] | other results |
| --- | --- | --- | --- | --- | --- | --- | --- | --- |
| CNC(=O)Oc1ccc2c(c1)[C@]1(C)CCN(C)[C@@H]1N2C [PHYSOSTIGMINE] | <0.005 µM | 160 µM |  |  |  |  |  |  |
| CNc1cc(NCCSCc2ccc(CN(C)C)o2)c([N+](=O)[O-])cc1[N+](=O)[O-] |  |  | 430 nM | 3.3 µM | 21 | 7.2 | 160 nM | Ileal activity [5]: inactive; IC50 [9]: 3.1 µM |
| CCCNc1cc(NCCSCc2ccc(CN(C)C)o2)c([N+](=O)[O-])cc1[N+](=O)[O-] | <1 µM |  | 3200 nM | 3.8 µM | 15 | 1.1 | 260 nM | IC50 [9]: 3.5 µM |
| CCCCCNc1cc(NCCSCc2ccc(CN(C)C)o2)c([N+](=O)[O-])cc1[N+](=O)[O-] |  |  |  |  |  |  | 1200 nM |  |
| O=C1CCCN1CC#CCN1CCCC1 [OXOTREMORINE] |  |  |  |  |  |  |  | Ki [10]: 1.5 µM; Ki [11]: 1.7 nM |
| CC(C)=NNc1cc(NCCSCc2ccc(CN(C)C)o2)c([N+](=O)[O-])cc1[N+](=O)[O-] | <0.1 µM | 3.5 µM | 3100 nM | 8.4 µM | 19 | 1.1 | 440 nM |  |
| CN(C)Cc1ccc(CSCCNc2ccc([N+](=O)[O-])cc2[N+](=O)[O-])o1 | <0.02 µM | 5.7 µM |  | 1.8 µM | 9.2 | 4.1 | 200 nM | IC50 [12]: 1400 nM; Ki [10]: 12 µM; % of control [13]: 120.4%; Ki [11]: 870 nM; % of control [14]: 110.8%; % of control [15]: 128.4% |
| CN(C)Cc1ccc(CSCCNc2cc(Nc3ccc(F)cc3)c([N+](=O)[O-])cc2[N+](=O)[O-])o1 | <0.01 µM | 4.4 µM | 2100 nM | 1.1 µM | 1.6 | 2.1 | 680 nM |  |
| CN(C)Cc1ccc(CSCCNc2cccc(F)c2C#N)o1 |  |  |  |  |  |  |  | IC50 [16]: 2100 nM |
| CN(C)Cc1ccc(CSCCNc2cc(NCc3cccnc3)c([N+](=O)[O-])cc2[N+](=O)[O-])o1 |  | 0.4 µM | 380 nM | 6.1 µM | 19 | 1.1 | 310 nM | Ileal activity [5]: inactive |
| CN(C)Cc1ccc(CSCCNc2cc(Nc3ccccc3C#N)c([N+](=O)[O-])cc2[N+](=O)[O-])o1 |  | 3.7 µM | 3300 nM | 1.8 µM | 2.8 | 1.1 | 630 nM | Ileal activity [5]: inactive |
| CN(C)Cc1ccc(CSCCNc2cc(NCCCN3CCOCC3)c([N+](=O)[O-])cc2[N+](=O)[O-])o1 | <0.1 µM | 0.3 µM | 530 nM | 4.7 µM | 13 | 0.57 | 370 nM |  |
| CN(C)Cc1ccc(CSCCNc2cc(NCc3ccccn3)c([N+](=O)[O-])cc2[N+](=O)[O-])o1 | <1 µM | 2.4 µM | 1500 nM | 5.2 µM | 4.1 | 1.6 | 1300 nM |  |
| CN(C)Cc1ccc(CSCCNc2cc(Oc3ccc([N+](=O)[O-])cc3)c([N+](=O)[O-])cc2[N+](=O)[O-])o1 |  |  |  | 1.1 µM |  |  | 270 nM |  |
| CN(C)Cc1ccc(CSCCNc2cc(F)c([N+](=O)[O-])cc2[N+](=O)[O-])o1 | <0.01 µM | 7 µM | 1800 nM | 3.8 µM | 33 | 3.9 | 120 nM |  |
| CN(C)Cc1ccc(CSCCNc2ccc(F)cc2[N+](=O)[O-])o1 |  | 2.4 µM | 4000 nM | 3.3 µM | 5.1 | 0.6 | 650 nM | Ileal activity [5]: inactive |
| CN(C)Cc1ccc(CSCCNc2cc(Nc3ccccc3)c([N+](=O)[O-])cc2[N+](=O)[O-])o1 |  | 6.4 µM | 6400 nM | 1.6 µM | 2.5 | 1 | 640 nM | Ileal activity [5]: inactive |
| CN(C)Cc1ccc(CSCCNc2nnccc2[N+](=O)[O-])o1 | <0.1 µM |  |  |  |  |  |  | IC50 [16]: 470 nM; IC50 [17]: 970 nM |
| CN(C)Cc1ccc(CSCCNc2cc(Nc3ncccc3[N+](=O)[O-])c([N+](=O)[O-])cc2[N+](=O)[O-])o1 |  |  |  | 18 µM |  |  | 650 nM |  |
| CN(C)Cc1ccc(CSCCNc2cc(NCc3ccccc3)c([N+](=O)[O-])cc2[N+](=O)[O-])o1 |  | 3.3 µM | 2000 nM |  |  | 1.7 |  | Ileal activity [5]: inactive |
| CN(C)CCNc1cc(NCCSCc2ccc(CN(C)C)o2)c([N+](=O)[O-])cc1[N+](=O)[O-] | <0.01 µM | 0.38 µM | 670 nM | 1.4 µM | 2.8 | 0.57 | 520 nM |  |
| C[N+](C)(C)CCOC(N)=O [CARBACHOL] |  |  |  |  |  |  |  | Ki [18]: 66 µM; Ki [19]: 8 nM |
| CN(C)Cc1ccc(CSCCNc2cc(N)c([N+](=O)[O-])cc2[N+](=O)[O-])o1 | <0.1 µM |  | 3800 nM | 2.4 µM | 28 | 1.8 | 83 nM | Ki [10]: 9.5 µM; % of control [20]: 153.2%; % of control [21]: 126.8%; Ki [11]: 460 nM; IC50 [9]: 6.8 µM |
| CN(C)Cc1ccc(CSCCNc2cc(NN)c([N+](=O)[O-])cc2[N+](=O)[O-])o1 | <0.1 µM | 4.7 µM | 3800 nM | 5.1 µM | 67 | 1.2 | 76 nM | % of control [22]: 110%; Ki [10]: 12 µM; % of control [23]: 126.8%; % of control [13]: 128.8%; Ki [11]: 1100 nM |

— ChEMBL document CHEMBL1125532, “Synthesis and cholinergic properties of N-aryl-2-[[[5-[(dimethylamino)methyl]-2-furanyl]methyl]thio]ethylamino analogs of ranitidine” (J Med Chem, 1992)
